{"source": "paper PMC5352362", "about": "“Molecular and functional evaluation of a novel HIF inhibitor, benzopyranyl 1,2,3-triazole compound” (Oncotarget, 2016)", "key": {"[1]": {"system": "hydroxylated (OH)-HIF-1α at P402 or P564, PHD2, HIF-1β", "experiment": "Western blot of hydroxylated HIF-1α, PHD2 and HIF-1β in A549 cells", "assay_type": "cell-based, human", "settings": "1–100 nM, 16 h", "experimental": "Figure 4 Compound 12 increased hydroxylation and proteasome-mediated degradation of HIF-1α (A) A549 cells were treated with Compound 12 (at concentrations of 0 nM, 1 nM, 10 nM, and 100 nM) for 16 h. Cells were fixed with paraformaldehyde; an immunofluorescence assay was then performed using anti-HIF-1α antibodies and Alexa Fluor 488-labeled secondary antibodies (green). Nuclei were stained with DAPI. N, normoxia; H, hypoxia. (B) A549 cells were treated with Compound 12 (10 nM concentration) and exposed to hypoxic conditions for 16 h. Cells were immediately treated with cycloheximide (CHX, 100 μg/mL) for the time indicated, and HIF-1α protein levels were determined by western blotting. β-actin was used as an internal control. Half-life (t1/2) of HIF-1α protein was determined using relative expression levels of HIF-1α. (C) A549 cells were treated with Compound 12 (at concentrations of 0 nM, 1 nM, 10 nM, and 100 nM) for 16 h. The expression levels of HIF-1α, hydroxylated (OH)-HIF-1α at P402 or P564, and PHD2 were determined via western blotting using specific antibodies. N, normoxia; H, hypoxia. (D) A549 cells were transfected with two kinds of small interfering RNAs targeting PHD2 and then treated with Compound 12 under hypoxic exposure for 16 h. Cell lysates were immunoblotted with an anti-HIF-1α and PHD2 antibody. (E) After A549 cells were treated with Compound 12 for 16 h, cells were treated with MG132 (20 μM) for 4 h. Cell lysates were immunoprecipitated (IP) with anti-HIF-1α antibody, and were then immunoblotted (IB) with anti-ubiquitin antibody. Relative levels of ubiquitinated HIF-1α were quantified and graphed. […]\nProteins extracted from cells using PRO-PREP (iNtRon Biotech, South Korea) were separated by SDS-PAGE and transferred to a nitrocellulose membrane (Whatman, Maidstone, UK). […] Antibody binding was detected using an enhanced chemiluminescence (ECL) kit (BioRad, Hercules, CA) according to the manufacturer's instructions. […]"}, "HUVECs": {"system": "HUVECs", "experiment": "BrdU cell proliferation assay, VEGF-induced", "assay_type": "cell-based, human", "settings": "VEGF 20 ng/mL", "experimental": "Figure 5 Compound 12 suppressed HIF-1α target gene expression, and confirmation of in vitro results via determination of effects on angiogenesis in vivo (A) A549 cells were treated with Compound 12 (at concentrations of 0 nM, 1 nM, 10 nM, and 100 nM) for 16 h. The mRNA levels of HIF-1α target genes were determined by semiquantitative RT-PCR. β-actin was used as an internal control. D. DMSO vehicle control. N, normoxia; H, hypoxia. (B) A549 cells were treated with serum-reduced culture media containing Compound 12 (at concentrations of 0 nM, 10 nM, and 100 nM) for 16 h. Media supernatant was collected, and secreted VEGF was determined by ELISA after removal of cellular debris. N, normoxia; H, hypoxia. **P < 0.01 versus hypoxia (H) DMSO (D)-treated control. (C) HUVECs were treated with Compound 12, at the indicated concentrations, in the presence of VEGF (20 ng/mL) for 24 h in 1% serum-containing media. […] Cells that migrated through the membrane (8 μm pore size) were stained with hematoxylin and eosin, pictured as shown in upper panel, and counted (graph). *P < 0.05, **P < 0.01 versus VEGF-treated control. […] (F) Compound 12 (0.1 μg and 1 μg dosages) and retinoic acid (RA, positive control) were applied to the ED 4.5 CAM for two days, neovessel formation from the large vessels was observed, and percentages of positive angiogenic eggs (from total eggs tested) were calculated. […]"}}, "data": [{"smiles": "COc1ccc(-c2cn(CC3(C)C=Cc4cc([N+](=O)[O-])ccc4O3)nn2)cc1", "note": "(stereo not shown) [Compound 12, 4-(4-methoxyphenyl)-1-((2-methyl-6-nitro-2H-chromen-2-yl)methyl)-1H-1,2,3-triazole]", "values": [{"measurement": "HIF-1β expression", "setting": "[1]", "value": "did not inhibit"}, {"measurement": "PHD2 levels", "setting": "[1]", "value": "increased even at the lowest dose (1 nM)"}, {"measurement": "hydroxylation of HIF-1α (P402, P564)", "setting": "[1]", "value": "increased hydroxylation of HIF-1α in a dose-dependent manner"}, {"measurement": "VEGF-induced endothelial cell proliferation (BrdU)", "setting": "HUVECs", "value": "significantly inhibited VEGF-induced proliferation"}]}]}
